Series [1] concerns NADH oxidase activity of membranes from E. coli strain BL21*Δcyo. Put plainly: NADH oxidase activity of E. coli BL21*Δcyo cytoplasmic membranes (Clark-type oxygen electrode). The format is biochemical, Escherichia coli. The method, then:
(§1) The inhibitory effect of ND-011992 on the NADH oxidase activity of membranes from E. coli strain BL21*Δcyo was determined. This activity is mainly mediated by the primary NADH dehydrogenases and the terminal oxidases. Strain BL21*Δcyo chromosomally lacks the bo3-oxidase and contains the homologous bd-I and bd-II oxidases as the only terminal oxidases. BL21*Δcyo was grown in full medium, cells were harvested and disrupted and cytoplasmic membranes were prepared by differential centrifugation. With NADH as substrate, electrons might enter the respiratory chain either via complex I or via the alternative, non-energy converting NADH dehydrogenase, NDH-II. […] Second, deamino-NADH (d-NADH) was used as substrate to determine the d-NADH oxidase activity of BL21*Δcyo membranes. d-NADH is a substrate specific for complex I preventing electron entry to the respiratory chain via NDH-II[15],[16]. […] The shift of the IC50 in dependence from the substrate already indicates a high-affinity inhibition of respiratory complex I by ND-011992.
(§2) The (d-)NADH oxidase activity of cytoplasmic membranes was determined with an Clark-type oxygen electrode (Oxyview System, Hansatech Instruments) at 30 °C[19]. […] The non-enzymatic reaction was determined after formation of a stable baseline. […] The protein concentration of membranes were determined by the biuret-method[32]. […]

The target of the next series is T1, E. coli bd-I oxidase (Escherichia coli, UniProt P0ABJ9).
T1 construct: His-tag; made in house; host or cells: E. coli BL21*Δcyo/pET28b(+)::cydAhisBX
T1 sequence (P0ABJ9 whole entry): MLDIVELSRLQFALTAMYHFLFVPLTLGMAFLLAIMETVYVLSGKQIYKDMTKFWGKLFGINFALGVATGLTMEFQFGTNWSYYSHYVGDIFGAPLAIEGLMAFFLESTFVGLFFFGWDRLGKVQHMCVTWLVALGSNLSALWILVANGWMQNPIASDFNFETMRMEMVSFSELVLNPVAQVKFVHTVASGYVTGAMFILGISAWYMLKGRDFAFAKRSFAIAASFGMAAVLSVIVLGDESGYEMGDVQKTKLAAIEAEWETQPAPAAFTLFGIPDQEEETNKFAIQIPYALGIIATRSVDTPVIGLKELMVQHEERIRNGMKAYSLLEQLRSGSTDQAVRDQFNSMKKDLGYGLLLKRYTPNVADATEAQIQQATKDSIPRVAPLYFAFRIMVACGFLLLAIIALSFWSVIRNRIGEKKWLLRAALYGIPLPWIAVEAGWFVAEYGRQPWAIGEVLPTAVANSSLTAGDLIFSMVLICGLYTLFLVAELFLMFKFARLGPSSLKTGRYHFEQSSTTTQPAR
T1 sequence (P56100 whole entry, further chain): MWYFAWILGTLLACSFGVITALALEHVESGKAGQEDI
T1 sequence (P0ABK2 whole entry, further chain): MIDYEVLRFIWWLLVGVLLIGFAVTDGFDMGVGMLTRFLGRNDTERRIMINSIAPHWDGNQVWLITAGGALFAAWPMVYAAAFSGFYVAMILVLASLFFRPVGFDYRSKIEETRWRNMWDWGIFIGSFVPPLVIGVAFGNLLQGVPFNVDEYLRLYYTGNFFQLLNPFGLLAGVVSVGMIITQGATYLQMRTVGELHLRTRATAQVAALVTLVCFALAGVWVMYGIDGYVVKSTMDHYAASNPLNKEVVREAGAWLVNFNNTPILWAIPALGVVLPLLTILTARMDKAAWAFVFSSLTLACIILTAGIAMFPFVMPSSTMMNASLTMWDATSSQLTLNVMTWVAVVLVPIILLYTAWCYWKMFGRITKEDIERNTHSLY
Put plainly: Duroquinol:oxygen oxidoreductase activity of isolated bd-I oxidase. Format: biochemical. How it is done:
(§3) E. coli bd-I oxidase was isolated from strain BL21*Δcyo/pET28b( +)::cydAhisBX[13], bd-II oxidase from strain BL21*Δcyo/pET28b( +)::appChisBX[19] and bo3 oxidase from strain BL21*Δcyo/pET28b( +)::cyoAhisBCD (see ‘Methods’). The index “his” indicates the subunit of the enzyme complexes decorated with a His-tag. All strains were grown under oxic conditions in full medium. Cells were harvested and disrupted and cytoplasmic membranes were prepared by differential centrifugation. Membrane proteins were extracted with the detergent lauryl maltose neopentyl glycol (LMNG) and purified to homogeneity by affinity-, anion exchange- and size exclusion-chromatography (see Supplementary Figs. S7–S9).
(§4) The affinity of ND-011992 towards the isolated oxidases was determined by its inhibition of the duroquinol:oxygen oxidoreductase activity measured as decrease of oxygen concentration. […] Thus, there is a significant two-fold difference in binding of ND-011992 towards the two homologous oxidases. Furthermore, the IC50 is higher than that to respiratory complex I, showing that the compound binds better to complex I than to bd-I and to bd-II oxidase. Incorporation of bromine to the compound led to significant changes of inhibition.
(§5) The duroquinol:oxygen oxidoreductase activity of isolated E. coli bd-I, bd-II and bo3 oxidase was determined by monitoring the oxygen consumption with a Clark-type oxygen electrode (Oxyview System, Hansatech Instruments)[20],[33]. All steps were conducted at 30 °C. The reaction chamber was filled with 2 mL 20 mM MOPS, 20 mM NaCl, 0.003% LMNG, pH 7.0. After formation of a stable baseline, 10 μL dithiothreitol (DTT) (1 M) and 5 μL duroquinone in ethanol (100 mM) were added and incubated for 1 min. The non-enzymatic reaction rate was determined. 10 μL enzyme in LMNG (2 mg/mL) were added to start the reaction. The rates were corrected for the non-enzymatic reaction. After 1 min, the reaction was inhibited by adding various amounts (0.01–50 µM) of ND-011992 and 2, respectively. Each data point was measured in triplicates. The standard deviation of each measurement is provided.

A further series has as its target T2, E. coli bd-II oxidase (Escherichia coli, UniProt P26459).
T2 construct: His-tag; made in house; host or cells: E. coli BL21*Δcyo/pET28b(+)::appChisBX
In words: Duroquinol:oxygen oxidoreductase activity of isolated bd-II oxidase. Format: biochemical. The method, then:
as §3, §4, §5

The test system of series [2] is d-NADH oxidase activity of BL21*Δcyo membranes. In words: d-NADH oxidase activity of E. coli BL21*Δcyo cytoplasmic membranes. The format is biochemical, Escherichia coli. Conditions: d-NADH as substrate, 30 °C. How it is done:
as §1, §2

The target of the next series is respiratory complex I (Escherichia coli, UniProt P0AFC7+P0AFD4+P33599). In words: d-NADH:decyl-ubiquinone oxidoreductase activity of E. coli CBO cytoplasmic membranes. The format is biochemical. Conditions: 1 mM KCN.
A further series concerns the target T3, E. coli bo3 oxidase (Escherichia coli, UniProt P0ABI8).
T3 construct: made in house; host or cells: E. coli BL21*Δcyo/pET28b(+)::cyoAhisBCD
Put plainly: Duroquinol:oxygen oxidoreductase activity of isolated bo3 oxidase. Format: biochemical. How it is done:
as §3
Because it was claimed that ND-011992 is an inhibitor specific for bd oxidases, we also determined its IC50 towards the isolated bo3 oxidase. As bd oxidases, bo3 oxidase is also a quinol oxidase.
The duroquinol:oxygen oxidoreductase activity of isolated E. coli bd-I, bd-II and bo3 oxidase was determined by monitoring the oxygen consumption with a Clark-type oxygen electrode (Oxyview System, Hansatech Instruments)[20],[33]. All steps were conducted at 30 °C. The reaction chamber was filled with 2 mL 20 mM MOPS, 20 mM NaCl, 0.003% LMNG, pH 7.0. […] The non-enzymatic reaction rate was determined. […] Each data point was measured in triplicates. […]

The target in the next series is mitochondrial complex I (Bos taurus, UniProt P03887+P17694+P42026). The format is biochemical, bovine.
Details of series [3]: method as in PMID 33283973. To be noted: as mentioned in the original publication; cited from earlier work.

We go through two compounds from article PMC10382516, “Exploring ND-011992, a quinazoline-type inhibitor targeting quinone reductases and quinol oxidases” (Scientific Reports, 2023).

T2 sequence (P26458 whole entry): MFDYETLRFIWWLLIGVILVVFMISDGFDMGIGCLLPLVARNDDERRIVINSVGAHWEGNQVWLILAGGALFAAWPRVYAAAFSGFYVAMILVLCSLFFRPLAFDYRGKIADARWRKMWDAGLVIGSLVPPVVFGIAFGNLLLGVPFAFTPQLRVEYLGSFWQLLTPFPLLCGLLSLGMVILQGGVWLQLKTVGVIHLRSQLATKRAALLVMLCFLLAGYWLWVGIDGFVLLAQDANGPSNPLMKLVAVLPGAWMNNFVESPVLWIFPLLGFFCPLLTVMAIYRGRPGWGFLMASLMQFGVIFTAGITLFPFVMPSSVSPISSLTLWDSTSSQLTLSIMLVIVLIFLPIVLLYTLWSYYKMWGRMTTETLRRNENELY
T2 sequence (P24244 whole entry, further chain): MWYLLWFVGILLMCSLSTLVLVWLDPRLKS
T2 sequence (P26459 whole entry): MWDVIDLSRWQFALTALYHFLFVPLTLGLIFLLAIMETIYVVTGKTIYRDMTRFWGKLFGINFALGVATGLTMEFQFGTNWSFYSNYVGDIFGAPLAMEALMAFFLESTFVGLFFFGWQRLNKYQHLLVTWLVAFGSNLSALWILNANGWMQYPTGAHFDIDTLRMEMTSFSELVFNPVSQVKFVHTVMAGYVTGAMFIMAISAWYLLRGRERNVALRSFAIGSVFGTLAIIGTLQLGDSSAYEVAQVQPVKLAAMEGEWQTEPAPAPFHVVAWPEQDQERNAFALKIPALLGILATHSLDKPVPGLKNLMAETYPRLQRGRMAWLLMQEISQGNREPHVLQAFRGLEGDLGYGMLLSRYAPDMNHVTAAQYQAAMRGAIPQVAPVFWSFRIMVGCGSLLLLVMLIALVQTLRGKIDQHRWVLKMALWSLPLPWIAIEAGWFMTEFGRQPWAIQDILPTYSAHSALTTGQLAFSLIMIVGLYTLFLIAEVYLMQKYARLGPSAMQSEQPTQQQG
T3 sequence (P0ABJ6 whole entry): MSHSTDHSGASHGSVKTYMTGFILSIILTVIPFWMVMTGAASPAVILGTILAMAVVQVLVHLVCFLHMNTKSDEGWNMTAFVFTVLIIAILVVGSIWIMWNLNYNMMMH
T3 sequence (P0ABJ3 whole entry, further chain): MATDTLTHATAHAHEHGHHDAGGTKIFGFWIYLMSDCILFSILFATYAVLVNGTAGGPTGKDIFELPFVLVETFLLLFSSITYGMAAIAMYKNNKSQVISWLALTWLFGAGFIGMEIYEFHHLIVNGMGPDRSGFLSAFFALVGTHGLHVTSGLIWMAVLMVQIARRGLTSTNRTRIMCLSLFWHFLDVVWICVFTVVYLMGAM
T3 sequence (P0ABJ1 25-315, further chain): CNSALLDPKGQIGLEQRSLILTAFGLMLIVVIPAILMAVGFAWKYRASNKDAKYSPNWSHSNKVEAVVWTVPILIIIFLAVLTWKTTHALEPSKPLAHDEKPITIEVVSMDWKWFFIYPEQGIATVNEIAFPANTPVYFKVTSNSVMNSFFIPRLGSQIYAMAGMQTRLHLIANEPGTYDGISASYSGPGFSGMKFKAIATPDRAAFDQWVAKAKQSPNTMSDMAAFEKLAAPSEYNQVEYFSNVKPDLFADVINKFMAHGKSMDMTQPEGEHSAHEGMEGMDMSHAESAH
T3 sequence (P0ABI8 whole entry): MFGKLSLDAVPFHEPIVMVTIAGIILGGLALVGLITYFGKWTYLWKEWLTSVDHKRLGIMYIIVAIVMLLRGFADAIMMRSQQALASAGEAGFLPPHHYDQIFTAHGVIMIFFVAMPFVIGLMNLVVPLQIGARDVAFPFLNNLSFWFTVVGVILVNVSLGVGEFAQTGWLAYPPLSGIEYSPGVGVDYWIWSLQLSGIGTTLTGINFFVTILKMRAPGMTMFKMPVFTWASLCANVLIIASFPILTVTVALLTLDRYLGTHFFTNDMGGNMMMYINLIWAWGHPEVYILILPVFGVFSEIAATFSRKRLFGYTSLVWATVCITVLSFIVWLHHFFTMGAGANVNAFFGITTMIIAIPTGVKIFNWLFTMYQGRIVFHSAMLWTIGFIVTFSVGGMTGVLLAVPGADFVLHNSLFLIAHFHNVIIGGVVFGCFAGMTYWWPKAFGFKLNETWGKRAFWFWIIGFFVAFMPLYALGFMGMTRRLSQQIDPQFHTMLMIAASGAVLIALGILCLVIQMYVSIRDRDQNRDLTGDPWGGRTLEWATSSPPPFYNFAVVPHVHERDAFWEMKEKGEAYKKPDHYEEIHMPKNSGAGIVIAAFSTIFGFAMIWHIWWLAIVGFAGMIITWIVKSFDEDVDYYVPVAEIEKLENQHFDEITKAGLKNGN

As a reminder, the IC50 is the concentration that inhibits the measured activity by half. Higher therefore signals lower potency. For the compound `FC(F)(F)c1ccc(Oc2ccc(Nc3ncnc4ccc(Br)cc34)cc2)cc1` [compound 2, 6-bromo-N-(4-(4-(trifluoromethyl)phenoxy)phenyl)quinazolin-4-amine], the “effect on the NADH oxidase activity of E. coli membranes” value in series [1] (micromolar concentration range) was “no effect”. Moreover, the IC50 against E. coli bd-I oxidase was 1030 nM; against E. coli bd-II oxidase, 130 nM.

Consider `FC(F)(F)c1ccc(Oc2ccc(Nc3ncnc4ccccc34)cc2)cc1` [ND-011992, N-(4-(4-(trifluoromethyl)phenoxy)phenyl)quinazolin-4-amine], for which the IC50 in series [1] (E. coli BL21*Δcyo membranes, NADH as substrate, 30 °C) was found to be 430 nM; in series [2] it was 260 nM; at respiratory complex I, 120 nM; against E. coli bd-I oxidase, 630 nM; on E. coli bd-II oxidase, 1300 nM; on E. coli bo3 oxidase, 2470 nM. The IC50 against mitochondrial complex I came to 3270 nM. For the same compound, the residual activity result was “about 20%” at E. coli bd-I oxidase (isolated bd-I oxidase, partial inhibition in titration); “about 20%” on E. coli bd-II oxidase (isolated bd-II oxidase, partial inhibition in titration); “about 20%” on E. coli bo3 oxidase (isolated bo3 oxidase, partial inhibition in titration); “about 20%” at mitochondrial complex I (bovine heart mitochondrial membranes, NADH oxidase activity). For the same compound, in series [3], the pharmacokinetic properties entry was “poor”.
